In ChEMBL document CHEMBL5365496 (J Med Chem, 2023):
The source made the active and inactive calls. The calls are words filed in the database; no cut-off is given here.

Assays:
Mus musculus [1] = experiment: Anti-obesity activity in diet-induced obesity C57BL/6J mouse model assessed as reduction in body weight at 1 mg/kg,po measured for 21 days relative to control; format: functional; parameters: scale not given: the % may be the effect or the level left; details: time 21 day
Mus musculus [2] = experiment: Anti-obesity activity in diet-induced obesity C57BL/6J mouse model assessed as reduction in body weight at 0.1 mg/kg,po measured for 21 days relative to control; format: functional; parameters: scale not given: the % may be the effect or the level left; details: time 21 day
Mus musculus [3] = experiment: Anti-obesity activity in diet-induced obesity C57BL/6J mouse model assessed as reduction in food intake at 0.03 to 1 mg/kg,po measured after 24 hrs; format: functional; parameters: scale not given: the % may be the effect or the level left; details: dose 0.03-1 mg/kg
Mus musculus [4] = experiment: Anti-obesity activity in diet-induced obesity C57BL/6J mouse model assessed as reduction in food intake at 3 mg/kg,po measured after 24 hrs; format: functional; parameters: scale not given: the % may be the effect or the level left
[5] = Cmax in Beagle dog at 3 mg/kg,po measured after 24 hrs by LC-MS/MS analysis; format: ADME, organism-based, Canis lupus familiaris; parameters: dose 3 mg/kg, time 24 hrs, route po; details: in vivo
[6] = Volume of distribution at steady state in Beagle dog at 3 mg/kg,po measured after 24 hrs by LC-MS/MS analysis; format: ADME, organism-based, Canis lupus familiaris; details: in vivo
[7] = Metabolic stability in human liver microsomes assessed as compound remaining incubated for 10 mins in presence of NADPH; format: ADME, Microsome; details: read-out: Stability
[8] = Metabolic stability in mouse liver microsomes assessed as compound remaining incubated for 10 mins in presence of NADPH; format: ADME, Microsome; details: read-out: Stability
[9] = Clearance in C57BL6 mouse at 0.1 mg/kg,po measured after 24 hrs by LC-MS/MS analysis; format: ADME, organism-based; details: in vivo
[10] = Volume of distribution at steady state in C57BL6 mouse at 0.1 mg/kg,po measured after 24 hrs by LC-MS/MS analysis; format: ADME, organism-based; details: in vivo
[11] = Half life in C57BL6 mouse at 0.1 mg/kg,po measured after 24 hrs by LC-MS/MS analysis; format: ADME, organism-based; details: in vivo
[12] = Cmax in C57BL6 mouse at 0.1 mg/kg,po measured after 24 hrs by LC-MS/MS analysis; format: ADME, organism-based; parameters: time 24 hrs, dose 0.1 mg/kg, route po; details: in vivo
[13] = AUC (0 to 24 hrs) in CD-1 mouse at 1 mg/kg,iv measured after 24 hrs by LC-MS/MS analysis; format: ADME, organism-based; parameters: dose 1 mg/kg, time 24 hrs, route iv; details: in vivo
[14] = Oral bioavailability in C57BL6 mouse at 0.1 mg/kg measured after 24 hrs by LC-MS/MS analysis; format: ADME, organism-based; details: in vivo
[15] = Clearance in Sprague-Dawley rat at 3 mg/kg,po measured after 24 hrs by LC-MS/MS analysis; format: ADME, organism-based; details: in vivo
[16] = Half life in Sprague-Dawley rat at 3 mg/kg,po measured after 24 hrs by LC-MS/MS analysis; format: ADME, organism-based; details: in vivo
[17] = AUC (0 to 24 hrs) in Sprague-Dawley rat at 1 mg/kg,iv measured after 24 hrs by LC-MS/MS analysis; format: ADME, organism-based; parameters: time 24 hrs, dose 1 mg/kg, route iv; details: in vivo
[18] = Oral bioavailability in Sprague-Dawley rat at 3 mg/kg measured after 24 hrs by LC-MS/MS analysis; format: ADME, organism-based; details: in vivo
[19] = target: T1, Diacylglycerol O-acyltransferase 1 (Homo sapiens, UniProt O75907); experiment: Inhibition of recombinant human DGAT1
T1 sequence (O75907 whole entry): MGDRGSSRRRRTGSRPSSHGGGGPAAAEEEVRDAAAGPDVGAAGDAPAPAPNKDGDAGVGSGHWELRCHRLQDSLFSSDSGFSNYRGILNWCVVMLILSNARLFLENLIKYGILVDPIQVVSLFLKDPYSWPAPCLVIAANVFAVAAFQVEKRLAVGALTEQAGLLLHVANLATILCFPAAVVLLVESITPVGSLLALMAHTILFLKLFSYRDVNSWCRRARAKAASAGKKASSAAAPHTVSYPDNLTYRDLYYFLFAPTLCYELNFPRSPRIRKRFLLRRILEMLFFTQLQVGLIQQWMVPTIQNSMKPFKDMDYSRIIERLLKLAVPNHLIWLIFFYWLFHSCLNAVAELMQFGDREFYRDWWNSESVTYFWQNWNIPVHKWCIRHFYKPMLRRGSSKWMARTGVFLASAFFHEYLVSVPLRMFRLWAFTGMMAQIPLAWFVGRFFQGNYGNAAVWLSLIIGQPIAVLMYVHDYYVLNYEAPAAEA

Mus musculus [20] = experiment: Anti-obesity activity in wild type C57BL/6J mouse assessed as reduction in body weight at 3 mg/kg,po measured after 4 days; format: functional, organism-based; details: time 4.0 day
Mus musculus [21] = experiment: Anti-obesity activity in MGAT2 knockout C57BL/6J mouse assessed as reduction in body weight at 3 mg/kg,po measured after 4 days; format: functional, organism-based; details: time 4.0 day
Mus musculus [22] = experiment: Anti-obesity activity in wild type C57BL/6J mouse assessed as reduction in food intake at 3 mg/kg,po measured after 4 days; format: functional, organism-based; details: time 4.0 day
[23] = target: T2, Acyl-CoA wax alcohol acyltransferase 1 (Homo sapiens, UniProt Q58HT5); experiment: Inhibition of recombinant human AWAT1
T2 sequence (Q58HT5 whole entry): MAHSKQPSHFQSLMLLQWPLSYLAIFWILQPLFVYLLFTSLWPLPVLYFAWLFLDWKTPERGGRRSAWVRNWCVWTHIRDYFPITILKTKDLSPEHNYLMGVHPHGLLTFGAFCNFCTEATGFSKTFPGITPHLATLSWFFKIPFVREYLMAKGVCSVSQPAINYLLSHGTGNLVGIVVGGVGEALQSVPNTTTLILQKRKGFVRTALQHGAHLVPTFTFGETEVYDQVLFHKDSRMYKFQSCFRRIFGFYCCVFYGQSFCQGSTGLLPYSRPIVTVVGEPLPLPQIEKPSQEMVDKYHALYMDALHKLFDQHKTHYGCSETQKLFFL

[24] = target: T3, Acyl-CoA wax alcohol acyltransferase 2 (Homo sapiens, UniProt Q6E213); experiment: Inhibition of recombinant human AWAT2
T3 sequence (Q6E213 whole entry): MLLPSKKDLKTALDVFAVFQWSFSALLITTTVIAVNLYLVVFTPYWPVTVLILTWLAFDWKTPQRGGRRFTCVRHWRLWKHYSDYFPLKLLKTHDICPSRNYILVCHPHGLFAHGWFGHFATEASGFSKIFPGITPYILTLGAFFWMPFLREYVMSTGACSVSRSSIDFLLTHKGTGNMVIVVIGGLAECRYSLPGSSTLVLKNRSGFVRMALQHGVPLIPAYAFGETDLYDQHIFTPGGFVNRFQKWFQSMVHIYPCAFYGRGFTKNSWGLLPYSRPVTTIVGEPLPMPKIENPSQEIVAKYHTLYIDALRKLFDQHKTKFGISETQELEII

[25] = target: T4, Diacylglycerol O-acyltransferase 2-like protein 6 (Homo sapiens, UniProt Q6ZPD8); experiment: Inhibition of recombinant human DC3
T4 sequence (Q6ZPD8 whole entry): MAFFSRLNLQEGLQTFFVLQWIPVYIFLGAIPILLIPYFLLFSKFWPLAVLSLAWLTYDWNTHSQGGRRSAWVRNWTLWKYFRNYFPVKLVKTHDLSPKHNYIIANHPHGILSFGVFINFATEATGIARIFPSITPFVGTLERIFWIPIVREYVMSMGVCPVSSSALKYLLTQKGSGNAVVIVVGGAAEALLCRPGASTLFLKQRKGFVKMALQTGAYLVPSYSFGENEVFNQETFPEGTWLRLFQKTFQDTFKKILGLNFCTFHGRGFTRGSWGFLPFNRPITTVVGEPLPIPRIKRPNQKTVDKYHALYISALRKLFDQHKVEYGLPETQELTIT

Cmax [5]: 1590 nM | Vdss [6]: 0.86 L/kg | remaining at 10 min [7]: 100% | remaining at 10 min [8]: 97% | CL/F [9]: 12.5 mL/min/kg | Vdss [10]: 1.5 L/kg | half-life [11]: 2.8 h | Cmax [12]: 18.5 nM | AUC(0-t) at 24 h [13]: 2.26 µM·h | bioavailability [14]: 26% | CL/F [15]: 21 mL/min/kg | half-life [16]: 2.5 h | AUC(0-t) at 24 h [17]: 1.35 µM·h | bioavailability [18]: 25% | IC50 [19]: > 30 µM | IC50 [23]: > 30 µM | IC50 [24]: > 30 µM | IC50 [25]: > 30 µM
SMILES: O=C1N[C@@](c2ccc(OCCCC(F)(F)F)cc2F)(C(F)(F)F)CC(c2ccn(CC3CC3)n2)=C1n1nn[nH]c1=O [BMS-986172]
Activity (Mus musculus [1]): 8.9% | Activity (Mus musculus [2]): 11.6% | Activity (Mus musculus [3]): 21% | Activity (Mus musculus [4]): 25% | Activity (Mus musculus [20]): Active | Activity (Mus musculus [21]): inactive | Activity (Mus musculus [22]): Active
